Reference: ChEMBL document CHEMBL1131589 (J Med Chem, 1998)

Target: Cannabinoid receptor 1 (Rattus norvegicus, UniProt P20272)
Assay: Displacement of [3H]CP-55940 binding to Cannabinoid receptor 1 in rat brain membranes
Type: cell membranes

Cannabinoid receptor 1, sequence (P20272 whole entry): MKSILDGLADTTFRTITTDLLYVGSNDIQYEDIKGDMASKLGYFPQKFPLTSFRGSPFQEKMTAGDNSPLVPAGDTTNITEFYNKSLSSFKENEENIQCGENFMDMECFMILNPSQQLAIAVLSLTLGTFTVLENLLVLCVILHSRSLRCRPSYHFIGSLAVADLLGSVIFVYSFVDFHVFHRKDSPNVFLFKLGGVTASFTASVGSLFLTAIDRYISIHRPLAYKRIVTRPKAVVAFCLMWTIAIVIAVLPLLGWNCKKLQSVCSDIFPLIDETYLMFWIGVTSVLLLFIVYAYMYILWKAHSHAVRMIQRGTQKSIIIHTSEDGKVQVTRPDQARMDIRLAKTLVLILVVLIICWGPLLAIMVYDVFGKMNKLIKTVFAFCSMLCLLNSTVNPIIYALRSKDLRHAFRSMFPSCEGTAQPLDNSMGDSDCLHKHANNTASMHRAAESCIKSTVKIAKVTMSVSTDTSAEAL

SMILES: CCCCCCC(C)(C)c1cc(O)c2c(c1)OC(C)(C)[C@H]1CC=C(CO)C[C@H]21 [DEXANABINOL]
- Ki: 360 nM

SMILES: CCCCCCC(C)(C)c1ccc([C@H]2C[C@@H](O)C[C@H]3CC[C@@H](CO)C[C@@H]32)c(O)c1
- Ki: 0.11 nM

SMILES: CCCCCCC(C)(C)c1cc(O)c2c(c1)OC(C)(C)[C@@H]1CC=C(CO)C[C@@H]21
- Ki: 0.23 nM
